Consider eight compounds from patent US4808703A, “Novel 3-(4'-aminobutylamino) propylaminobleomycin derivatives” (Zaidan Hojin Biseibutsu Kagaku Kenku Kai, priority 1983, dated 1989).

In one series the test system is ICR mice. In words: Pulmonary toxicity (fibrosis of the lung) in mice. To be noted: for Incidence: Number of mice with pulmonary fibrosis/Number of mice in the treatment group / Incidence (%) of pulmonary fibrosis / Grade: Total score for pulmonary fibrosis/Total specimens / Grade of pulmonary fibrosis (total score divided by total number of specimens): 5 mg/kg i.p. once daily for 10 days; for Incidence: Number of mice with pulmonary fibrosis/Number of mice in the treatment group / Incidence (%) of pulmonary fibrosis: autopsy after 5 weeks of observation; for Incidence: Number of mice with pulmonary fibrosis/Number of mice in the treatment group: count; for Incidence (%) of pulmonary fibrosis: percentage in parentheses; for Grade: Total score for pulmonary fibrosis/Total specimens / Grade of pulmonary fibrosis (total score divided by total number of specimens): autopsy after 5 weeks, scores 0, 1, 2, 4, 6 points; for Grade: Total score for pulmonary fibrosis/Total specimens: fraction; for Grade of pulmonary fibrosis (total score divided by total number of specimens): value in parentheses; for Grade ratio: grade of the test compound to that of bleomycin complex; for Incidence ratio: incidence of the test compound to that of bleomycin complex.

The subject of series [1] is Mycobacterium smegmatis ATCC 607. Description: Antibacterial activity by the agar cylinder plate method, Mycobacterium smegmatis ATCC607. The series is classed as cell-based. The settings on record: copper-containing compound, standard bleomycin A2 = 1,000 mcg potency/mg. The text has this:
(§1) (1) Antibacterial activity against Mycobacterium smegmatis ATCC607 and Bacillus subtilis
(§2) The above activity ws determined by the agar cylinder plate method using the above microorganisms.

In another series the test system is Bacillus subtilis. In words: Antibacterial activity by the agar cylinder plate method, Bacillus subtilis. The series is classed as cell-based. The settings on record: copper-containing compound, standard bleomycin A2 = 1,000 mcg potency/mg.
Excerpt: as §1, §2

Description for ICR mice: ICR mice (male, 15-week-old) were used in groups of 10 each. The dose of each test compound was 5 mg/kg injected intraperitoneally once daily for 10 consecutive days. After the administration of the compound was completed, the animals were reared for 5 weeks for observation. Then, the animals were killed and autopsied so that the incidence and grade of pulmonary fibrosis were examined.
The incidence of pulmonary fibrosis was expressed as the number of mice developing pulmonary fibrosis in the group of mice administered the test compound. The grade of pulmonary fibrosis was expressed as the total score for pulmonary fibrosis divided by the total number of specimens.
1 point: Accumulation of exudate in the alveoli, and fibrosis-like changes seen in the alveolar septum.
2 points: Fibrosis seen at several sites.
4 points: Sporadic fibrosis.
6 points: Extensive fibrosis (fibrosis seen in more than 170 of the total region).
The ratio in the table represents the ratio of the incidence of the test compound to that of bleomycin complex, or the ratio of the grade of the test compound to that of bleomycin complex.

For `Cc1c(N)nc(C(CC(N)=O)NCC(N)C(N)=O)nc1C(=O)NC(C(=O)NC(C)C(O)C(C)C(=O)NC(C(=O)NCCc1nc(-c2nc(C(=O)NCCCN(CCCCN(Cc3ccccc3)Cc3ccccc3)Cc3ccccc3)cs2)cs1)C(C)O)C(OC1OC(CO)C(O)C(O)C1OC1OC(CO)C(O)C(OC(N)=O)C1O)c1cnc[nH]1` (centres unmarked) [Compound 1, 3-[N-benzyl-N-(4'-dibenzylaminobutyl)amino]propylaminobleomycin], in the series with ICR mice, the “Incidence: Number of mice with pulmonary fibrosis/Number of mice in the treatment group” value was 0/10, the “Incidence (%) of pulmonary fibrosis” value was 0%, the “Grade: Total score for pulmonary fibrosis/Total specimens” value was 0/30 and the “Grade of pulmonary fibrosis (total score divided by total number of specimens)” value is reported as 0. In addition, in the series with ICR mice, the Grade ratio is 0.00 and the Incidence ratio is recorded as 0.00. The “Antibacterial titer of copper-compound” value in series [1] amounted to 17360 mcg potency/mg. The “Antibacterial titer of copper-compound” value in the series with Bacillus subtilis is listed as 400 mcg potency/mg.
In the case of `Cc1c(N)nc(C(CC(N)=O)NCC(N)C(N)=O)nc1C(=O)NC(C(=O)NC(C)C(O)C(C)C(=O)NC(C(=O)NCCc1nc(-c2nc(C(=O)NCCC[N+](C)(CCCCN(Cc3ccccc3)Cc3ccccc3)Cc3ccccc3)cs2)cs1)C(C)O)C(OC1OC(CO)C(O)C(O)C1OC1OC(CO)C(O)C(OC(N)=O)C1O)c1cnc[nH]1` (centres unmarked) [Compound 12, 3-[N--methyl-N--benzyl-N--(4'-dibenzyl-aminobutyl)amino]propylaminobleomycin], in the series with ICR mice, the “Incidence: Number of mice with pulmonary fibrosis/Number of mice in the treatment group” value is given as 0/10, the “Incidence (%) of pulmonary fibrosis” value is given as 0%, the “Grade: Total score for pulmonary fibrosis/Total specimens” value is 0/30 and the “Grade of pulmonary fibrosis (total score divided by total number of specimens)” value turned out to be 0. Also, in the series with ICR mice, the Grade ratio was 0.00 and the Incidence ratio came to 0.00. For the same compound, in series [1], the “Antibacterial titer of copper-compound” value is listed as 13733 mcg potency/mg. The “Antibacterial titer of copper-compound” value with Bacillus subtilis was found to be 832 mcg potency/mg.
`CCCCCCCCCCN(CCCCCCCCCC)CCCCN(CCCCCCCCCC)CCCNC(=O)c1csc(-c2csc(CCNC(=O)C(NC(=O)C(C)C(O)C(C)NC(=O)C(NC(=O)c3nc(C(CC(N)=O)NCC(N)C(N)=O)nc(N)c3C)C(OC3OC(CO)C(O)C(O)C3OC3OC(CO)C(O)C(OC(N)=O)C3O)c3cnc[nH]3)C(C)O)n2)n1` (centres unmarked) [Compound 8, 3-{N--n-decyl-N--[4'-bis(n-decyl)-aminobutyl]amino}propylaminobleomycin]: in the series with ICR mice, the “Incidence: Number of mice with pulmonary fibrosis/Number of mice in the treatment group” value is listed as 0/10, the “Incidence (%) of pulmonary fibrosis” value was 0%, the “Grade: Total score for pulmonary fibrosis/Total specimens” value was 0/30 and the “Grade of pulmonary fibrosis (total score divided by total number of specimens)” value worked out at 0. In the series with ICR mice, the Grade ratio worked out at 0.00 and the Incidence ratio turned out to be 0.00. Further, in series [1], the “Antibacterial titer of copper-compound” value came to 295 mcg potency/mg. Also, the “Antibacterial titer of copper-compound” value with Bacillus subtilis turned out to be 75 mcg potency/mg.
Turning to `Cc1c(N)nc(C(CC(N)=O)NCC(N)C(N)=O)nc1C(=O)NC(C(=O)NC(C)C(O)C(C)C(=O)NC(C(=O)NCCc1nc(-c2nc(C(=O)NCCCN(CCCCN(Cc3ccc(Cl)c(Cl)c3)Cc3ccc(Cl)c(Cl)c3)Cc3ccc(Cl)c(Cl)c3)cs2)cs1)C(C)O)C(OC1OC(CO)C(O)C(O)C1OC1OC(CO)C(O)C(OC(N)=O)C1O)c1cnc[nH]1` (centres unmarked) [Compound 3, 3-{N--m,p-dichlorobenzyl-N--[4'-bis(m,p-dichlorobenzyl)aminobutyl]amino}propylaminobleomycin], in the series on ICR mice, the “Incidence: Number of mice with pulmonary fibrosis/Number of mice in the treatment group” value was 0/10, the “Incidence (%) of pulmonary fibrosis” value came out at 0%, the “Grade: Total score for pulmonary fibrosis/Total specimens” value was 0/30 and the “Grade of pulmonary fibrosis (total score divided by total number of specimens)” value came out at 0. Also, in the series with ICR mice, the Grade ratio is given as 0.00 and the Incidence ratio came to 0.00. Besides, in series [1], the “Antibacterial titer of copper-compound” value is 217 mcg potency/mg. Also, the “Antibacterial titer of copper-compound” value in the series on Bacillus subtilis is 43 mcg potency/mg.
As to `Cc1c(N)nc(C(CC(N)=O)NCC(N)C(N)=O)nc1C(=O)NC(C(=O)NC(C)C(O)C(C)C(=O)NC(C(=O)NCCc1nc(-c2nc(C(=O)NCCCNCCCCN)cs2)cs1)C(C)O)C(OC1OC(CO)C(O)C(O)C1OC1OC(CO)C(O)C(OC(N)=O)C1O)c1c[nH]cn1` (centres unmarked) [Compound A5, 3-(4'-aminobutylamino)propylaminobleomycin, reference compound], in the series on ICR mice, the “Incidence: Number of mice with pulmonary fibrosis/Number of mice in the treatment group” value was 5/10, the “Incidence (%) of pulmonary fibrosis” value was 50%, the “Grade: Total score for pulmonary fibrosis/Total specimens” value is listed as 5/30 and the Grade ratio worked out at 0.29. In addition, in the series on ICR mice, the Incidence ratio worked out at 0.71. Also, the Grade of pulmonary fibrosis (total score divided by total number of specimens) in the series on ICR mice (the values are: mean fibrosis score per specimen) amounted to 0.17.
Regarding `Cc1c(N)nc(C(CC(N)=O)NCC(N)C(N)=O)nc1C(=O)NC(C(=O)NC(C)C(O)C(C)C(=O)NC(C(=O)NCCc1nc(-c2nc(C(=O)NCCCN(CCCCN(Cc3ccc(OCc4ccccc4)c(OCc4ccccc4)c3)Cc3ccc(OCc4ccccc4)c(OCc4ccccc4)c3)Cc3ccc(OCc4ccccc4)c(OCc4ccccc4)c3)cs2)cs1)C(C)O)C(OC1OC(CO)C(O)C(O)C1OC1OC(CO)C(O)C(OC(N)=O)C1O)c1cnc[nH]1` (centres unmarked) [Compound 10, 3-{N-m,p-dibenzyloxybenzyl-N-[4'bis(m,p-dibenzyloxybenzyl)aminobutyl]amino}propylaminobleomycin], in the series with ICR mice, the “Incidence: Number of mice with pulmonary fibrosis/Number of mice in the treatment group” value is recorded as 0/10, the “Incidence (%) of pulmonary fibrosis” value came to 0%, the “Grade: Total score for pulmonary fibrosis/Total specimens” value was 0/30 and the “Grade of pulmonary fibrosis (total score divided by total number of specimens)” value is 0. Further, in the series on ICR mice, the Grade ratio amounted to 0.00 and the Incidence ratio worked out at 0.00. Besides, the “Antibacterial titer of copper-compound” value in series [1] is given as 136 mcg potency/mg. Also, the “Antibacterial titer of copper-compound” value in the series on Bacillus subtilis stood at 6 mcg potency/mg.
For the compound `Cc1c(N)nc(C(CC(N)=O)NCC(N)C(N)=O)nc1C(=O)NC(C(=O)NC(C)C(O)C(C)C(=O)NC(C(=O)NCCc1nc(-c2nc(C(=O)NCCC[N+](C)(C)CCCCN(Cc3ccccc3)Cc3ccccc3)cs2)cs1)C(C)O)C(OC1OC(CO)C(O)C(O)C1OC1OC(CO)C(O)C(OC(N)=O)C1O)c1cnc[nH]1` (centres unmarked) [Compound 11, 3-[N,N-dimethyl-N-(4'-dibenzyl-aminobutyl)amino]propylaminobleomycin], the “Antibacterial titer of copper-compound” value is given as 20160 mcg potency/mg in series [1] and 2528 mcg potency/mg in the series with Bacillus subtilis.
Turning to `Cc1c(N)nc(C(CC(N)=O)NCC(N)C(N)=O)nc1C(=O)NC(C(=O)NC(C)C(O)C(C)C(=O)NC(C(=O)NCCc1nc(-c2nc(C(=O)NCCCN(CCCCN(CC3CCCCCCC3)CC3CCCCCCC3)CC3CCCCCCC3)cs2)cs1)C(C)O)C(OC1OC(CO)C(O)C(O)C1OC1OC(CO)C(O)C(OC(N)=O)C1O)c1cnc[nH]1` (centres unmarked) [Compound 6, 3-{N--cyclooctylmethyl-N--[4'-bis(cyclooctylmethyl)aminobutyl]amino}propylaminobleomycin], in the series on ICR mice, the “Incidence: Number of mice with pulmonary fibrosis/Number of mice in the treatment group” value is recorded as 0/10, the “Incidence (%) of pulmonary fibrosis” value amounted to 0%, the “Grade: Total score for pulmonary fibrosis/Total specimens” value is recorded as 0/30 and the “Grade of pulmonary fibrosis (total score divided by total number of specimens)” value amounted to 0. Moreover, in the series with ICR mice, the Grade ratio was determined as 0.00 and the Incidence ratio was determined as 0.00. Besides, the “Antibacterial titer of copper-compound” value in series [1] was 530 mcg potency/mg. For the same compound, in the series on Bacillus subtilis, the “Antibacterial titer of copper-compound” value amounted to 61 mcg potency/mg.
